Columns and labels:
[1] = test system: mES cells differentiated towards cardiomyocytes; assay: mES cell differentiation towards cardiomyocytes, beating embryoid bodies counted; type: cell-based, mouse; details: after 13 days of differentiation; FIG. 5B
Source text: FIG. 5: Defective cardiomyocyte differentiation upon teratogenic compound exposure. mES cells were exposed to teratogenic compounds during mES cell differentiation towards cardiomyocytes. The percentage of beating 3D embryoid bodies (examples in A), representing functional cardiomyocytes, was counted. (B) Quantification of beating bodies. Presented values are expressed as percentages of control. Students t-test was used to determine significance. *p<0.05, **p<0.01, ***p<0.001.
For cardiomyocyte differentiation embryonic bodies were used, formed by hanging drops containing 750 cells in Iscoves's Modified Dulbecco's Medium (IMDM). Prior to hanging drop formation, cells were cultured on gelatine-coated dishes in IMDM supplemented with 20% FBS. Cells were detached with cell dissociation buffer (Gibco). After 3 days, embryonic bodies were transferred to a bacterial plate in differentiation medium (IMDM, 10% serum (unless specified otherwise), PS, NEAA and 2-mercapto ethanol). On day 5, the bodies were transferred to a 48-well plate in differentiation medium containing 2% serum, BMP, Activin A, Chir99021 and Xav939. On day 7 embryonic bodies were exposed to only Xav939 in differentiation medium and on day 11 all growth factors were removed and replaced with differentiation medium. Day 13 was used as endpoint for cardiomyocyte differentiation. On this day, beating bodies were quantified and RNA samples collected.

[2] = test system: GFP-Ck18 mES reporter cells; assay: mES GFP-Ck18 reporter cell differentiation towards hepatocytes, GFP fluorescence intensity; type: cell-based, mouse; details: after 21 days of differentiation; normalized to DAPI; FIG. 8
Experimental: FIG. 8: Defective hepatocyte differentiation upon teratogenic compound exposure. mES GFP-Ck18 reporter cells were exposed to different teratogenic compounds during mES cell differentiation towards hepatocytes. After 21 days, fluorescence intensity of the hepatocyte specific GFP-Ck18 reporter was measured using microscopy and quantified using Fiji image processing software. GFP intensity was normalized to nuclear intensity measured using DAPI. Presented values are expressed as percentages of control. Student t-test was used for determination of significance. *p<0.05 **p<0.01.*** p<0.001.
Hepatocyte differentiation was started from a monolayer of mES cells on day −1. On day 0, differentiation medium supplemented with Activin A was added. On day 4, the medium was replaced with liver differentiation medium (DMEM containing 10% serum, PS, NEAA and 2-mercaptoethanol) with aFGF and sodium butyrate. On day 9, the medium was replaced with liver differentiation medium containing HGF. On day 14, cells were exposed to liver differentiation medium containing Dexamethasone and Oncostatin M. From day 17 onwards, liver differentiation medium was refreshed every 3-4 days. Endpoint of differentiation was set on day 21.
mES cells were seeded on gelatin-coated culture dishes 24 h prior to transfection. […] GFP expression in differentiated cells was determined by flow cytometry.

[3] = test system: hiPSC cells differentiated towards hepatocytes; assay: hiPSC differentiation towards hepatocytes in presence of compound, biomarker expression by qPCR; type: cell-based, human
Experimental: The hepatocyte differentiation protocol is based on (Chen et al., 2012, which is incorporated herein by reference). In brief, hiPSC cells were seeded on day −4 in mTESR medium on Matrigel. On day 0 the mTESR medium was replaced with RPMI medium containing B27, Activin A, Chir99021, HGF and PS. On day 3, the cells were refreshed with DMEM medium containing KO serum replacement, Glutamax, NEAA, 2-mercaptoethanol, DMSO and PS. On day 7, the medium was replaced with IMDM medium containing oncostatin M, dexamethasone, ITS, Glutamax, NEAA and PS. On day 10, 14 and 17, cells are refreshed with IMDM medium containing ITS, Glutamax, NEAA and PS. RNA samples were collected on day 0, day 7 and day 21 of differentiation.
(§1) To assess the effect of potential teratogenic agents, hiPSC were treated with the test material from day 0 until the end of differentiation. When differentiation medium was refreshed, fresh compound was added.
(§2) Induction of the biomarker expression was compared with the expression of the gene in undifferentiated cells using quantitative real-time PCR (qRT-PCR). At several time points during differentiation, total RNA was isolated using Trizol […]. Complementary DNA was synthesized using oligo(dT) primers and SuperScript […] ReverseTranscriptase (Invitrogen) according to the manufacturer's protocol. Expression of biomarker genes was determined using specific primers (SEQ ID NOs: 68-99, 105 and 106) spanning the exon-exon boundaries of the genes with the PowerUP SYBR Green Master Mix (Applied Biosystems) on a Quantstudio 5 Real-Time PCR System (Applied Biosystems) using ROX as a passive reference. Relative expression was normalized using expression of the GAPDH and HPRT genes.

[4] = test system: hiPSC cells differentiated towards cardiomyocytes; assay: hiPSC differentiation towards cardiomyocytes in presence of compound, biomarker expression by qPCR; type: cell-based, human
Experimental: Briefly, on day −4, hiPSC cells were seeded in 24-well plates in mTESR medium on Matrigel. On day 0, the medium was replaced with BEL medium (IMDM, HF12 medium, PFHMII medium, BSA, ITS-X, CD lipids, α-Monothioglycerol, Glutamax, PS and ascorbic acid) containing BMP4, Activin A and Chir99021. At day 3 of differentiation, the medium was refreshed with BEL containing Xav939. On day 7 and 10 of differentiation, the medium was replaced with BEL without growth factors. RNA samples were collected on day 0, day 7 and day 14 of differentiation.
Induction of the biomarker expression was compared with the expression of the gene in undifferentiated cells using quantitative real-time PCR (qRT-PCR). At several time points during differentiation, total RNA was isolated using Trizol (Qiagen). Complementary DNA was synthesized using oligo(dT) primers and SuperScript VI ReverseTranscriptase (Invitrogen) according to the manufacturer's protocol. […] Relative expression was normalized using expression of the GAPDH and HPRT genes.

[5] = test system: hiPSC cells differentiated towards neural rosettes; assay: hiPSC differentiation towards neural rosettes in presence of compound, biomarker expression by qPCR; type: cell-based, human; details: compound added during differentiation, day 0 until end, FIG. 2
Experimental: The protocol for neural differentiation is based on (Lippmann, Estevez-Silva, & Ashton, 2014, which is incorporated herein by reference). In short, hiPSC were seeded in mTESR medium on Matrigel on day −1. On day 0, medium was replaced with E6 medium with PS to start differentiation. Medium was refreshed with E6 medium on Day 3 and 7. RNA samples were collected on day 0, day 7 and day 10.
as §1, §2

O=c1[nH]cc(F)c(=O)[nH]1 [5′fluoracil, 5-fluorouracil]
beating cardiomyocytes (beating embryoid bodies) [1]: decrease
GFP-Ck18 intensity [2]: significantly reduced

C=CC(N)=O [acrylamide]
biomarker expression during hepatocyte differentiation ([3]; compound present during differentiation, qPCR, T-test vs vehicle control, FIG. 3): no significant reduction

O=C1NC(=O)C(c2ccccc2)(c2ccccc2)N1 [diphenylhydantoin]
beating cardiomyocytes (beating embryoid bodies) [1]: decrease

CC1=C(/C=C/C(C)=C/C=C/C(C)=C/C(=O)O)C(C)(C)CCC1 [retinoic acid, All-trans retinoic acid]
Expression of AFP in hepatocytes [3]: reduced
Expression of ALB in hepatocytes [3]: reduced
Expression of MYH6 in cardiomyocytes [4]: reduced
Expression of PAX6 in neural rosettes [5]: reduced
beating cardiomyocytes (beating embryoid bodies) [1]: decrease
GFP-Ck18 intensity [2]: significantly reduced

— patent US20220260552A1, “Methods to determine the effect of an agent on mammalian embryonic development” (Toxys B.V., priority 2019, published 2022)
